The values below come from patent publication US5173498A, “Substituted 3-thia- and 3-oxa-alkylflavones, a process for their preparation, the use thereof, medicaments based on these compounds and intermediates” (Hoechst Aktiengesellschaft, priority 1990, dated 1992).

One assay deals with LDL. Description: Inhibition of Cu^2+-catalyzed LDL oxidation (increase in fluorescence at 430 nm). It is filed as biochemical, pigs. Particulars: Table I; 50% inhibition of fluorescence increase at 430 nm; 5 μM Cu^2+, 2 hours, 37° C., pH 7.4; LDL 0.1 mg protein/ml. How it is done: The method for testing the antioxidant action of the substances is based on the inhibition of the Cu^2+ -catalyzed oxidation of LDL by active compounds, the increase in fluorescence at 430 nm serving as a measure of the LDL oxidation (U.P. Steinbrecher, J. Biol. Chem. 262. 3603 (1987)).
Blood from freshly slaughtered pigs, which was collected in the presence of EDTA (1 mg/ml) and NaN3 (0.1 mg/ml) and then centrifuged for 20 min at 2,000×g and 4° C. in order to remove the cellular constituents, was used for isolation of the LDL. Stepwise ultracentrifuging of the plasma in NaCl/NaBr solutions having densities of d=1.019 and d=1.063 yielded the LDL fraction (R. J. Havel, H. A. Eder and J. H. Bragdon, J. Clin. Investig. 34, 1345 (1955)). In this method the samples were centrifuged in a 50.2 Ti fixed angle rotor (Beckman Instruments) in each case for 18 hours at 300,000×g and 17° C. In order to lower the EDTA concentration, the LDL fraction obtained in this way had to be subjected for 48 hours to two dialyses in 100 times the volume of a phosphate-buffered saline solution (160 mM NaCl, 10 mM NaH2 PO4) of pH 7.4 (U. P. Steinbrecher, J. L. Witztum, S. Parthasarathy and D. Steinberg, Arteriosclerosis 7, 135 (1987)).
For the oxidation tests, the LDL fraction, which was stored at 4° C., was diluted to 0.1 mg of protein/ml using the dialysis buffer of the abovementioned composition. 2.5 ml of this LDL solution were treated with 25 μl of ethanolic solution having various concentrations of the test substance and the samples were incubated in closed vessels under nitrogen for 1 hour at 37° C., in order initially to achieve an adequate incorporation of the substance in the LDL particles (L. R. McLean and K. A. Hagaman, Biochemistry 28, 321 (1989)). The maximum concentration of the test compounds was 10 μM in the test.
The oxidation of the LDL was effected by adding 12.5 μl of a 1 mM CuSO4 solution, i.e. 5 μM Cu^2+ in the test, and incubating for two hours at 37° C. in cell culture dishes open to the air. The controls contained 25 μl of pure ethanol. To determine the blank, analogously prepared LDL samples were treated with 12.5 μl of a solution of 1 mM CuSO4 and 40 mM EDTA and likewise incubated for 2 hours at 37° C.
After the end of the incubation, the fluorescence intensity emitted at 430 nm was determined in all samples using the excitation wavelength 365 nm (Perkin-Elmer type LS-3 spectrofluorimeter).
The IC50 values, i.e. those molar concentrations which, under the test conditions described, inhibit the increase in fluorescence by 50% (controls =100), were determined for comparison of the strength of action of the antioxidants. For this purpose the fluorescence measurement was carried out as a duplicate determination using, in each case, 5 to 6 different concentrations of the test substance. Plotting the percentage inhibition values on semi-logarithmic paper and graphic interpolation gave the corresponding IC50 (Table I). Vitamin E was used as comparison compound.

The test system of assay [1] is cholesterol biosynthesis in HEP-G2 cells. Put plainly: Suppression or inhibition of cholesterol biosynthesis in cell cultures of HEP-G2 cells. It is filed as cell-based. Particulars: Homo sapiens, HepG2, Table II, ^14C-cholesterol formed from ^14C-sodium acetate. How it is done:
Monolayers of HEP-G2 cells in lipoprotein-free nutrient medium were preincubated with corresponding concentrations of the test substances for a certain time (e.g. 1 hour) and after addition of the labeled precursor, for example ^14 C-sodium acetate, the incubation was continued (e.g. 3 hours). After addition of an internal standard (^3 H-cholesterol), a portion of the cells was subjected to alkaline saponification. The lipids in the saponified cells were extracted with chloroform/methanol. After addition of carrier cholesterol, this lipid mixture was separated by preparative thin layer chromatography, the cholesterol band was isolated after rendering visible using iodine vapor and the amount of ^14 C-cholesterol formed from the ^14 C-precursor was determined by scintigraphy. Cell protein was determined in a aliquote portion of the cells, so that the amount of ^14 C-cholesterol formed per unit time per mg of cell protein can be calculated. By comparing this value with the amount of ^14 C-cholesterol which was formed per mg of cell protein and per unit time from a culture which was treated in the same way but free from test substance, the inhibitory effect of the particular test preparation on the cholesterol biosynthesis of HEP-G2 cell cultures was obtained. [drawing 12]
Using the method described above, for example, the following inhibitory values for the cholesterol biosynthesis (in HEP-G2 cells) were determined for the compounds according to the invention (the IC50 value in mole/liter is that concentration of the compound which effects a 50% inhibition of the cholesterol biosynthesis) (Tab. II).

In the assay on LDL, `CCCCCCCCCCCCSCc1c(-c2ccc(F)cc2)oc2cc(O)cc(O)c2c1=O` [Example 9b] gave an IC50 of 12000 nM.
On the same count and under the same terms, in the case of `CCCCCCCCCCCCCCCCCCSCc1c(-c2ccc(F)cc2)oc2cc(O)cc(O)c2c1=O` [Example 9d] it was 8000 nM.
Consider `C/C(=C\CSCc1c(-c2ccc(F)cc2)oc2cc(O)cc(O)c2c1=O)CCC[C@H](C)CCC[C@H](C)CCCC(C)C` [Example 9e], for which the IC50 came out at 10 nM in assay [1] and 330 nM in the assay on LDL.
On the same counts, the results for `C/C(=C\CSCc1c(-c2ccc(O)cc2)oc2cc(O)cc(O)c2c1=O)CCC[C@H](C)CCC[C@H](C)CCCC(C)C` [Example 9i] are 9 nM and 900 nM.
In assay [1], `CC(C)=CCC/C(C)=C/CC/C(C)=C/CSCc1c(-c2ccc(F)cc2)oc2cc(O)cc(O)c2c1=O` [Example 9l] returned a half-maximal inhibitory concentration (IC50) of 80 nM.
Consider `COc1ccc(-c2oc3cc(O)cc(O)c3c(=O)c2CSC/C=C(\C)CC/C=C(\C)CCC=C(C)C)cc1` [Example 9m], for which half-maximal inhibition in assay [1] (IC50) required 80 nM.
In the assay on LDL, Vitamin E [reference compound] had an IC50 of 4800 nM.

As usually defined, the IC50 is the concentration at which inhibition is half-maximal.
